The text below walks through data of US6900219B2, “ABCA-1 elevating compounds” (CV Therapeutics, Inc., priority 2002, dated 2005).

The subject of the assay is ABCA-1 gene. Description: compounds tested and found to elevate cellular expression of the ABCA-1 gene (Examples 1-6; test not named). It is filed as cell-based. Here is the method:
Activity testing is conducted as described in those patents and patent applications referenced above, and in the Examples below, and by methods apparent to one skilled in the art.
Regarding `Cc1cccc(NC(=O)c2cc3ccccc3oc2=O)c1` [N-(3-methylphenyl)(2-oxochromen-3-yl)carboxamide], the “cellular expression of the ABCA-1 gene” value is recorded as “elevate cellular expression of the ABCA-1 gene”. For `O=C(Nc1nc(-c2ccc3ccccc3c2)cs1)c1cccc(C(F)(F)F)c1` [N-(4-(2-naphthyl)(1,3-thiazol-2-yl))[3-(trifluoromethyl)phenyl]carboxamide], the “cellular expression of the ABCA-1 gene” value was “elevate cellular expression of the ABCA-1 gene”.

Take `O=C(Nc1nc(-c2ccc3ccccc3c2)cs1)c1ccc(OC(F)(F)F)cc1` [N-(4-(2-naphthyl)(1,3-thiazol-2-yl))[4-(trifluoromethoxy)phenyl]carboxamide]: the “cellular expression of the ABCA-1 gene” value is given as “elevate cellular expression of the ABCA-1 gene”. With `CC(=O)c1ccc(NC(=O)c2ccc(F)cc2)cc1` [N-(4-acetylphenyl)(4-fluorophenyl)carboxamide] the entry was “elevate cellular expression of the ABCA-1 gene”. With `CC(=O)c1ccc(NC(=O)Nc2cccc(Cl)c2)cc1` [N-(4-acetylphenyl)[(3-chlorophenyl)amino]carboxamide] the entry was “elevate cellular expression of the ABCA-1 gene”; with `O=C(Nc1ccc(Br)cc1)c1ccc2ccccc2c1` [N-(4-bromophenyl)-2-naphthylcarboxamide], “elevate cellular expression of the ABCA-1 gene”. For `N#Cc1cccc(C(=O)Nc2nc3c(Cl)cccc3s2)c1` [N-(4-chlorobenzothiazol-2-yl)(3-cyanophenyl)carboxamide], the “cellular expression of the ABCA-1 gene” value was “elevate cellular expression of the ABCA-1 gene”.

`O=C(Nc1nc2c(Cl)cccc2s1)c1cccc(F)c1` [N-(4-chlorobenzothiazol-2-yl)(3-fluorophenyl)carboxamide]: the “cellular expression of the ABCA-1 gene” value is reported as “elevate cellular expression of the ABCA-1 gene”. With `N#Cc1ccc(C(=O)Nc2nc3c(Cl)cccc3s2)cc1` [N-(4-chlorobenzothiazol-2-yl)(4-cyanophenyl)carboxamide] the entry was “elevate cellular expression of the ABCA-1 gene”; with `O=C(Nc1nc2c(Cl)cccc2s1)c1ccco1` [N-(4-chlorobenzothiazol-2-yl)-2-furylcarboxamide], “elevate cellular expression of the ABCA-1 gene”; with `O=C(Nc1nc2c(Cl)cccc2s1)c1cccs1` [N-(4-chlorobenzothiazol-2-yl)-2-thienylcarboxamide], “elevate cellular expression of the ABCA-1 gene”. Next, `CCCc1c(C(=O)Nc2nc3c(Cl)cccc3s2)cnn1-c1ccc(Cl)cc1` [N-(4-chlorobenzothiazol-2-yl)[1-(4-chlorophenyl)-5-propylpyrazol-4-yl]carboxamide]: “elevate cellular expression of the ABCA-1 gene”. With `O=C(Nc1ccc(Cl)cc1)c1ccc2ccccc2c1` [N-(4-chlorophenyl)-2-naphthylcarboxamide] the entry was “elevate cellular expression of the ABCA-1 gene”; with `CCOc1ccc(NC(=O)Nc2ccc(Cl)cc2)cc1` [N-(4-ethoxyphenyl)[(4-chlorophenyl)amino]carboxamide], “elevate cellular expression of the ABCA-1 gene”.

In the case of `O=C(Nc1ccc(F)cc1)c1cc2ccccc2oc1=O` [N-(4-fluorophenyl)(2-oxochromen-3-yl)carboxamide], the “cellular expression of the ABCA-1 gene” value is on record as “elevate cellular expression of the ABCA-1 gene”. Next, `Cc1ccc(NC(=O)Oc2ccc(C3=NCCS3)cc2)cc1` [N-(4-methylphenyl)(4-(1,3-thiazolin-2-yl)phenoxy)carboxamide]: “elevate cellular expression of the ABCA-1 gene”; `Cc1cc(C)c2ccc(NC(=O)c3ccc(Cl)cc3)nc2n1` [N-(5,7-dimethylpyridino[3,2-e]pyridin-2-yl)(4-chlorophenyl)carboxamide]: “elevate cellular expression of the ABCA-1 gene”. With `O=C(Cc1cccs1)Nc1ncc(-c2ccccc2)s1` [N-(5-phenyl(1,3-thiazol-2-yl))-2-(2-thienyl)acetamide] the entry was “elevate cellular expression of the ABCA-1 gene”; with `O=C(Nc1ncc(-c2ccccc2)s1)c1ccccn1` [N-(5-phenyl(1,3-thiazol-2-yl))-2-pyridylcarboxamide], “elevate cellular expression of the ABCA-1 gene”; with `O=C(Nc1ncc(-c2ccccc2)s1)c1cccc(C(F)(F)F)c1` [N-(5-phenyl(1,3-thiazol-2-yl))[3-(trifluoromethyl)phenyl]carboxamide], “elevate cellular expression of the ABCA-1 gene”.

Take `O=C(Nc1ncc(-c2ccccc2)s1)c1ccc(OC(F)(F)F)cc1` [N-(5-phenyl(1,3-thiazol-2-yl))[4-(trifluoromethoxy)phenyl]carboxamide]: the “cellular expression of the ABCA-1 gene” value is reported as “elevate cellular expression of the ABCA-1 gene”. In the case of `N#Cc1cccc(C(=O)Nc2nc3ccc(Cl)cc3s2)c1` [N-(6-chlorobenzothiazol-2-yl)(3-cyanophenyl)carboxamide], the “cellular expression of the ABCA-1 gene” value is listed as “elevate cellular expression of the ABCA-1 gene”. Next, `CCOc1ccc2nc(NC(=O)Nc3ccccc3)sc2c1` [N-(6-ethoxybenzothiazol-2-yl)(phenylamino)carboxamide]: “elevate cellular expression of the ABCA-1 gene”; `CCOc1ccc2nc(NC(=O)CC)sc2c1` [N-(6-ethoxybenzothiazol-2-yl)propanamide]: “elevate cellular expression of the ABCA-1 gene”.

Regarding `O=C(c1ccc(Br)cc1)N(CCc1ccccc1)Cc1c2ccccc2cc2ccccc12` [N-(9-anthrylmethyl)(4-bromophenyl)-N-(2-phenylethyl)carboxamide], the “cellular expression of the ABCA-1 gene” value was “elevate cellular expression of the ABCA-1 gene”. Next, `CCOc1ccc(C(=O)N(Cc2c3ccccc3cc3ccccc23)C(=O)Nc2ccccc2F)cc1` [N-(9-anthrylmethyl)(4-ethoxyphenyl)-N-{[(2-fluorophenyl)amino]carbonyl}-carboxamide]: “elevate cellular expression of the ABCA-1 gene”. With `COc1ccc(C(=O)N(CCc2ccccc2)Cc2c3ccccc3cc3ccccc23)cc1` [N-(9-anthrylmethyl)(4-methoxyphenyl)-N-(2-phenylethyl)carboxamide] the entry was “elevate cellular expression of the ABCA-1 gene”; with `CCc1ccc(N(Cc2c3ccccc3cc3ccccc23)C(=O)Nc2ccccc2F)cc1` [N-(9-anthrylmethyl)-N-(4-ethylphenyl)[(2-fluorophenyl)amino]carboxamide], “elevate cellular expression of the ABCA-1 gene”. With `CCn1c2ccccc2c2cc(NC(=O)c3ccc(F)cc3)ccc21` [N-(9-ethylcarbazol-3-yl)(4-fluorophenyl)carboxamide] the entry was “elevate cellular expression of the ABCA-1 gene”; with `CCn1c2ccccc2c2cc(NC(=O)c3ccc(OC)cc3)ccc21` [N-(9-ethylcarbazol-3-yl)(4-methoxyphenyl)carboxamide], “elevate cellular expression of the ABCA-1 gene”; with `CCn1c2ccccc2c2cc(NC(=O)c3ccc(C)cc3)ccc21` [N-(9-ethylcarbazol-3-yl)(4-methylphenyl)carboxamide], “elevate cellular expression of the ABCA-1 gene”. With `CCCCCCCCCCCC(=O)N(/C=C/c1ccccc1)c1ccc(CC)cc1` [N-((1E)-2-phenylvinyl)-N-(4-ethylphenyl)dodecanamide], the “cellular expression of the ABCA-1 gene” value is reported as “elevate cellular expression of the ABCA-1 gene”. With `CCc1ccc(C(=O)N(C/C=C/c2ccccc2)c2ccc(Br)cc2)cc1` [N-((2E)-3-phenylprop-2-enyl)-N-(4-bromophenyl)(4-ethylphenyl)carboxamide] the entry was “elevate cellular expression of the ABCA-1 gene”. With `O=C(NCCc1ccccc1F)c1ccc2oc(N3CCCN(C(=O)Cc4ccc(C(F)(F)F)cc4)CC3)nc2c1` [N-[2-(2-fluorophenyl)ethyl][2-(4-{2-[4-(trifluoromethyl)phenyl]acetyl}(1,4-diazaperhydroepinyl))benzoxazol-5-yl]carboxamide] the entry was “elevate cellular expression of the ABCA-1 gene”; with `O=C(NCCc1ccccc1F)c1ccc2oc(N3CCCN(C(=O)CCc4c[nH]c5ccccc45)CC3)nc2c1` [N-[2-(2-fluorophenyl)ethyl]{2-[4-(3-indol-3-ylpropanoyl)(1,4-diazaperhydroepinyl)]benzoxazol-5-yl}carboxamide], “elevate cellular expression of the ABCA-1 gene”; with `COc1ccc(CCN(Cc2ccc(C(C)(C)C)cc2)C(=O)c2ccco2)cc1OC` [N-[2-(3,4-dimethoxyphenyl)ethyl]-N-{[4-(tert-butyl)phenyl]methyl}-2-furylcarboxamide], “elevate cellular expression of the ABCA-1 gene”.

With `COc1ccc(CN(CCc2ccc(OC)c(OC)c2)C(=O)C2CC2)cc1` [N-[2-(3,4-dimethoxyphenyl)ethyl]cyclopropyl-N-[(4-methoxyphenyl)methyl]-carboxamide], the “cellular expression of the ABCA-1 gene” value is “elevate cellular expression of the ABCA-1 gene”.

Take `O=C(CNC(=O)c1ccccc1F)c1ccc(Cl)cc1` [N-[2-(4-chlorophenyl)-2-oxoethyl](2-fluorophenyl)carboxamide]: the “cellular expression of the ABCA-1 gene” value is “elevate cellular expression of the ABCA-1 gene”. With `CC(c1nc2ccccc2c(=O)n1-c1ccc2ccccc2c1)N(CCN(C)C)C(=O)Nc1cccc(C#N)c1` (stereo not shown) [N-[2-(dimethylamino)ethyl][(3-cyanophenyl)amino]-N-[(3-(2-naphthyl)-4-oxo(3-hydroquinazolin-2-yl))ethyl]carboxamide] the entry was “elevate cellular expression of the ABCA-1 gene”; with `COc1cccc(NC(=O)N(CCN(C)C)C(C)c2nc3ccccc3c(=O)n2-c2ccc3ccccc3c2)c1` (stereo not shown) [N-[2-(dimethylamino)ethyl][(3-methoxyphenyl)amino]-N-[(3-(2-naphthyl)-4-oxo(3-hydroquinazolin-2-yl))ethyl]carboxamide], “elevate cellular expression of the ABCA-1 gene”.
